{
  "source": "PubChem BioAssay AID1963826",
  "about": "(Molecular Pharmacology Branch, DTP, NCI, 2024);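 further: spheroids exposed to drugs for one week before readout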;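 on viability, T/C: percent viability relative to DMSO vehicle control wells set as 100%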",
  "test_system": "926638-142-R-J1-PDC complex spheroid viability",
  "assay": "Anticancer human tumor 926638-142-R-J1-PDC patient-derived endometrial carcinoma cell line growth inhibition [POLQ]",
  "conditions": "for IC50: curve of first compound; for viability, T/C: stronger effect = lower value",
  "method_in_brief": "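Patient-derived tumour cells were co-cultured with HUVEC and mesenchymal stem cells as multicellular spheroids at 37 °C. They were treated with POLQ inhibitors (novobiocin, ART-558, RP6685) alone or combined with other agents. Top concentrations were at or near clinical Cmax (otherwise 10 microM; SN-38 at 1 microM), decreasing in half-log steps.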",
  "data": [
    {"smiles": "Cn1ncnc1[C@H]1c2n[nH]c(=O)c3cc(F)cc(c23)N[C@@H]1c1ccc(F)cc1", "note": "+ Cc1cccc(N(C)C(=O)C2C(O)CCN2c2nc(C)cc(C(F)(F)F)c2C#N)c1", "values": [
      {"measurement": "IC50", "setting": "second compound 0.0316 µM", "result": "> 100", "unit": "nM"},
      {"measurement": "IC50", "setting": "second compound 0.1 µM", "result": "> 100", "unit": "nM"},
      {"measurement": "IC50", "setting": "second compound 0.316 µM", "result": "> 100", "unit": "nM"},
      {"measurement": "IC50", "setting": "second compound 1 µM", "result": "> 100", "unit": "nM"},
      {"measurement": "IC50", "setting": "second compound 3.16 µM", "result": "> 100", "unit": "nM"},
      {"measurement": "IC50", "setting": "second compound 10 µM", "result": "> 100", "unit": "nM"},
      {"measurement": "viability, T/C", "setting": "second compound 0.0316 µM, first compound 0.000316 µM", "result": 100, "unit": "%"},
      {"measurement": "viability, T/C", "setting": "second compound 0.0316 µM, first compound 0.001 µM", "result": 83.6, "unit": "%"},
      {"measurement": "viability, T/C", "setting": "second compound 0.0316 µM, first compound 0.00316 µM", "result": 86.1, "unit": "%"},
      {"measurement": "viability, T/C", "setting": "second compound 0.0316 µM, first compound 0.01 µM", "result": 84.9, "unit": "%"},
      {"measurement": "viability, T/C", "setting": "second compound 0.0316 µM, first compound 0.0316 µM", "result": 81.5, "unit": "%"},
      {"measurement": "viability, T/C", "setting": "second compound 0.0316 µM, first compound 0.1 µM", "result": 73.8, "unit": "%"},
      {"measurement": "viability, T/C", "setting": "second compound 0.1 µM, first compound 0.000316 µM", "result": 91.2, "unit": "%"},
      {"measurement": "viability, T/C", "setting": "second compound 0.1 µM, first compound 0.001 µM", "result": 82.4, "unit": "%"},
      {"measurement": "viability, T/C", "setting": "second compound 0.1 µM, first compound 0.00316 µM", "result": 83.6, "unit": "%"},
      {"measurement": "viability, T/C", "setting": "second compound 0.1 µM, first compound 0.01 µM", "result": 82.5, "unit": "%"},
      {"measurement": "viability, T/C", "setting": "second compound 0.1 µM, first compound 0.0316 µM", "result": 73.7, "unit": "%"},
      {"measurement": "viability, T/C", "setting": "second compound 0.1 µM, first compound 0.1 µM", "result": 78.8, "unit": "%"},
      {"measurement": "viability, T/C", "setting": "second compound 0.316 µM, first compound 0.000316 µM", "result": 86.9, "unit": "%"},
      {"measurement": "viability, T/C", "setting": "second compound 0.316 µM, first compound 0.001 µM", "result": 81.2, "unit": "%"},
      {"measurement": "viability, T/C", "setting": "second compound 0.316 µM, first compound 0.00316 µM", "result": 92.9, "unit": "%"},
      {"measurement": "viability, T/C", "setting": "second compound 0.316 µM, first compound 0.01 µM", "result": 73.4, "unit": "%"},
      {"measurement": "viability, T/C", "setting": "second compound 0.316 µM, first compound 0.0316 µM", "result": 64.9, "unit": "%"},
      {"measurement": "viability, T/C", "setting": "second compound 0.316 µM, first compound 0.1 µM", "result": 65.3, "unit": "%"},
      {"measurement": "viability, T/C", "setting": "second compound 1 µM, first compound 0.000316 µM", "result": 103, "unit": "%"},
      {"measurement": "viability, T/C", "setting": "second compound 1 µM, first compound 0.001 µM", "result": 101, "unit": "%"},
      {"measurement": "viability, T/C", "setting": "second compound 1 µM, first compound 0.00316 µM", "result": 70.3, "unit": "%"},
      {"measurement": "viability, T/C", "setting": "second compound 1 µM, first compound 0.01 µM", "result": 77.2, "unit": "%"},
      {"measurement": "viability, T/C", "setting": "second compound 1 µM, first compound 0.0316 µM", "result": 85.1, "unit": "%"},
      {"measurement": "viability, T/C", "setting": "second compound 1 µM, first compound 0.1 µM", "result": 68.1, "unit": "%"},
      {"measurement": "viability, T/C", "setting": "second compound 3.16 µM, first compound 0.000316 µM", "result": 73.5, "unit": "%"},
      {"measurement": "viability, T/C", "setting": "second compound 3.16 µM, first compound 0.001 µM", "result": 97.5, "unit": "%"},
      {"measurement": "viability, T/C", "setting": "second compound 3.16 µM, first compound 0.00316 µM", "result": 91, "unit": "%"},
      {"measurement": "viability, T/C", "setting": "second compound 3.16 µM, first compound 0.01 µM", "result": 67.5, "unit": "%"},
      {"measurement": "viability, T/C", "setting": "second compound 3.16 µM, first compound 0.0316 µM", "result": 74.1, "unit": "%"},
      {"measurement": "viability, T/C", "setting": "second compound 3.16 µM, first compound 0.1 µM", "result": 76.8, "unit": "%"},
      {"measurement": "viability, T/C", "setting": "second compound 10 µM, first compound 0.000316 µM", "result": 87.9, "unit": "%"},
      {"measurement": "viability, T/C", "setting": "second compound 10 µM, first compound 0.001 µM", "result": 84.2, "unit": "%"},
      {"measurement": "viability, T/C", "setting": "second compound 10 µM, first compound 0.00316 µM", "result": 77.3, "unit": "%"},
      {"measurement": "viability, T/C", "setting": "second compound 10 µM, first compound 0.01 µM", "result": 80, "unit": "%"},
      {"measurement": "viability, T/C", "setting": "second compound 10 µM, first compound 0.0316 µM", "result": 72.7, "unit": "%"},
      {"measurement": "viability, T/C", "setting": "second compound 10 µM, first compound 0.1 µM", "result": 75.7, "unit": "%"}
    ]}
  ]
}
